Source: patent publication US20220372171A1, “ANTIBODY DIRECTED AGAINST TENOFOVIR AND DERIVATIVES THEREOF” (priority 2019, published 2022)

Columns and labels:
[1] = Urine TFV concentration by ELISA, Partners PrEP Study cohort; format: in vivo, human; conditions: Partners PrEP cohort on TDF or TDF/FTC; IQR=500-90,000 ng/mL
Protocol: (§1) It was hypothesized that TFV concentrations in urine, measured via an immunoassay, would correlate to those in plasma, the gold standard for short-term PrEP adherence in clinical trials, and associated with protection from HIV. To test this hypothesis, TFV levels were measured in stored urine samples collected from a randomly sampled cohort of HIV-negative men and women from the active PrEP arms in the Partners PrEP Study using enzyme-linked immunosorbent assay (ELISA) (lower limit of quantification [LLOQ] of 1000 ng/mL). Date-matched plasma TFV concentrations were measured using liquid chromatography-tandem mass spectrometry (LC-MS/MS) with an LLOQ of 0.31 ng/mL. Using the same cohort and a purposive sample of all HIV seroconverters on PrEP, a case-cohort analysis was conducted to assess the association between recent urine TFV level ≥1500 ng/mL, a threshold previously shown to accurately predict recent PrEP dosing, and protection from HIV. Weighted Cox proportional hazard models were used and adjusted for age, sex, and sexual behavior.

HIV [2] = experiment: Urine TFV levels by immunoassay and HIV seroconversion (iPrEx-OLE); format: in vivo
Protocol: PrEP was provided to 1,085 men who have sex with men (MSM) and 140 transwomen (Grant et al., Lancet Infect Dis, 14: 820-829 (2014)). Urine was collected every 12 weeks and dried blood spots (DBS) were prepared 4 and 8 weeks after PrEP initiation, and then every 12 weeks. DBS assays for TFV-diphosphate (TFV-DP) and FTC-triphosphate (FTC-TP) were analyzed at all visits for participants who seroconverted in the iPrEx open-label extension (iPrEx-OLE) study and in a random subset of those who remained HIV-negative (Grant et al., supra). Hair samples for TFV and FTC were collected every 12 weeks for all who provided opt-in consent and analyzed among seroconverters and a random subset of those who remained HIV-negative (Gandhi et al., Lancet HIV, 3: e521-e528 (2016)). Participants who qualified for the correlation analysis required sample availability from all three biomatrices (urine, DBS, hair) at one or more visits over the duration of iPrEx-OLE (median 72 weeks). Additional urine samples from seroconverters (n=10) were included in the specific analysis looking at the association between urine TFV levels and seroconversion. All individuals in the study provided informed consent, including for sample storage and further testing, and the institutional review board from each study site approved the study.
The upper limit of quantification for the immunoassay was 50,000 ng/mL. Using previously described and validated LC-MS/MS-based methods, TFV-DP and FTC-TP concentration were measured in DBS (Zheng et al., J Pharm Biomed Anal, 122: 16-20 (2016)), and FTC and TFV concentrations were measured in hair (Liu et al., PLoS One, 9: e83736 (2014)).
For the seroconversion analysis, urine TFV concentrations via the immunoassay were compared using Kruskal-Wallis' test among individuals at the seroconversion visit; prior to the seroconversion visit; and those who remained HIV-negative. Receiver operating curves (ROC) were analyzed to identify two urine TFV cut-points and compared with the outcome of future HIV seroconversion. […] The sensitivity and specificity of the urine assay at an undetectable urine TFV level (<1,000 ng/mL) was compared with two levels of inadequate adherence defined by TFV-DP concentrations in DBS: the limit of quantification (<3.5 fmol/punch) and very low adherence (<350 fmol/punch, estimated average weekly adherence of <2 tablets/week) (Grant et al., Lancet Infect Dis, 14: 820-829 (2014)); and Anderson et al., Antimicrob Agents Chemother, 62: e01710-e01717 (2018)). The lower limit of detection for the urine assay (1,000 ng/mL) was selected as the optimal single cut-off based on analysis of ROC curves and prior data examining LC-MS/MS-based methods to quantify TFV levels in urine (Lalley-Chareczko et al., J Acquir Immune Defic Syndr, 79: 173-178 (2018)).

[3] = Plasma TFV concentration by LC-MS/MS, Partners PrEP Study cohort; format: in vivo, human; conditions: Partners PrEP cohort on TDF or TDF/FTC; IQR=1.6-103.0 ng/mL
Protocol: as §1

HIV [4] = conditions: daily doses; subjects at high risk through sexual transmission and drug use; cited from earlier work
HIV [5] = experiment: Nested case-control analysis: TFV level and protection from HIV acquisition (Partners PrEP Study); format: in vivo
Protocol: as §1
To assess the association between urine TFV concentrations ≥1,500 ng/mL and protection from HIV acquisition, a nested case-control analysis was conducted. Case samples collected on the date of the first evidence of HIV infection (i.e., first positive test for HIV-1 RNA) were matched with control samples collected at the same study visit month. […]

C[C@H](Cn1cnc2c(N)ncnc21)OCP(=O)(O)O [TFV, tenofovir]
median TFV concentration in urine via ELISA [1]: 37,500 ng/mL
urinary TFV level at seroconversion (HIV [2]; at seroconversion (n=9), P<0.001, undetectable = <1,000 ng/mL): undetectable
association of decreasing strata of urine TFV levels with HIV seroconversion (HIV [2]; samples prior to seroconversion visit, P=0.03): associated with future HIV seroconversion
median urinary TFV level (HIV [2]; those who eventually seroconverted (n=11), interquartile range 1,000-12,500): 5,500 ng/mL
median urinary TFV level (HIV [2]; those who remained HIV negative (n=105), interquartile range 1,000-45,000): 15,000 ng/mL
median TFV concentration in plasma via LC-MS/MS [3]: 65.4 ng/mL
reduced incidence of HIV (HIV [4]): 48.9%
reduction in HIV risk associated with plasma TFV >40 ng/mL (HIV [5]; plasma TFV >40 ng/mL by LC-MS/MS, 95% CI=54-96%): 87%
% HIV risk reduction (95% CI) (HIV [5]; urine TFV ≥1500 ng/mL by immunoassay, unadjusted, TDF/FTC or TDF-only PrEP): 73% (36 to 89%)
